Several values for one entry are separate records, joined by “and”; a condition that tells them apart may be missing. Equal entries are not always repeated.
Key:
[1] = Pharmacokinetic interaction between lopinavir/r and the Compound, steady-state PK in healthy volunteers; format: in vivo, human; details: for Exposures when coadministered with the Compound: LPV/r 400/100 mg BID + the Compound 125 mg QD; for AUCtau % GMR (90% CI) / Cmax % GMR (90% CI) / Ctau % GMR (90% CI): 14-day periods
[2] = Compartmental modeling in WinNonlin of Compound doses using the observed lopinavir interaction data; parameters: species or system human; details: modeled
Excerpt: Consideration was given to achieving equivalent Compound exposures in patients receiving and not receiving lopinavir using pharmacokinetic (bio-) equivalence comparisons (Pharsight Corporation, Mountain View, Calif., USA). Consideration was also given to minimizing the number of individuals with extreme outliers in (low or high) exposures.

[3] = LPV/r 400/100 mg BID + the Compound 125 mg QD vs LPV/r 400/100 mg BID alone, n = 13
[4] = the Compound 125 mg QD + LPV/r 400/100 mg BID vs the Compound/r 125/100 mg QD alone, n = 14

Row | Exposures when coadministered with the Compound [1] | AUCtau % GMR (90% CI) [1, 3] [%] | Cmax % GMR (90% CI) [1, 3] [%] | Ctau % GMR (90% CI) [1, 3] [%] | AUCtau % GMR (90% CI) [1, 4] | Cmax % GMR (90% CI) [1, 4] | Ctau % GMR (90% CI) [1, 4] | Reduction in the dose of the Compound with lopinavir while maintaining an equivalent exposure [2] | Dose of the Compound with lopinavir/r giving systemic exposure (AUC) similar to a 150 mg dose without lopinavir ([2]; reference is the 150 mg ritonavir-boosted dose without lopinavir) | Dose of the Compound with lopinavir/r giving systemic exposure (AUC) similar to a 300 mg dose without lopinavir ([2]; reference is the 300 mg ritonavir-boosted dose without lopinavir) [mg] | Compound | Trough concentrations when coadministered with the Compound ([1]; relative to recommended target troughs)
1 | unaltered | 96.6 | 99.2 | 92.3 |  |  |  |  |  |  | Cc1cccc(C)c1OCC(=O)N[C@@H](Cc1ccccc1)[C@@H](O)C[C@H](Cc1ccccc1)NC(=O)[C@H](C(C)C)N1CCCNC1=O [LPV, (2S)-N-[(2S,4S,5S)-5-{[2-(2,6-dimethyl-phenoxy)acetyl]amino}-4-hydroxy-1,6-diphenyl-hexan-2-yl]-3-methyl-2-(2-oxo-1,3-diazinan-1-yl)butanamide] | maintained above recommended target troughs
2 |  |  |  |  | 175 (150, 204) % | 152 (129, 179) % | 238 (181, 313) % | 40-60% | 85 mg and 85 ± 10 mg | 150 | COc1cc2c(cc1Cc1cccc(Cl)c1F)c(=O)c(C(=O)O)cn2[C@H](CO)C(C)C [the Compound, 6-(3-chloro-2-fluorobenzyl)-1-[(2S)-1-hydroxy-3-methylbutan-2-yl]-7-methoxy-4-oxo-1,4-dihydroquinoline-3-carboxylic acid] | 
3 | unaltered | 103 | 114 | 88.3 |  |  |  |  |  |  | CC(C)c1nc(CN(C)C(=O)NC(C(=O)NC(Cc2ccccc2)CC(O)C(Cc2ccccc2)NC(=O)OCc2cncs2)C(C)C)cs1 (stereo not drawn) [RTV, 1,3-thiazol-5-ylmethyl[3-hydroxy-5-[3-methyl-2-[methyl-[(2-propan-2-yl-1,3-thiazol-4-yl)methyl]carbamoyl]amino-butanoyl]amino-1,6-diphenyl-hexan-2-yl]aminoformate] | 

Source: patent US20090093482A1, “THERAPEUTIC COMPOSITIONS AND METHODS” (Gilead Sciences, Inc., priority 2007, published 2009)
